Assay results reported in patent US12459931B2, “Benzothiophene derivative regulator, preparation method therefor and use thereof” (Shanghai Hansoh Biomedical Co., Ltd., priority 2019, dated 2025).
Read-outs that look alike come from different tables or passages of the source.

Columns and labels:
[1] = molecular target: Human Dopamine D3 Receptor (Homo sapiens (Human), UniProt P35462); experiment: Radioligand-receptor binding assay, dopamine D3 receptor ([3H]-methylspiperone); conditions: [3H]-methylspiperone 0.5 nM, human D3 receptor membrane
Method: Determination of the Binding Ability of the Compounds of the Present Invention to Dopamine D3 Receptor
The objective of this test example is to determine the affinity of the compounds for dopamine D3 receptor.
Assay buffer: 50 mM Tris-HCl pH 7.4, 10 mM MgCl2; wash solution: 50 mM Tris-HCl pH 7.4, stored at 4° C.; 0.5% PEI solution: 0.5 g PEI dissolve in 100 mL ddH2O, 4° C. storage of spare.
(§1) 5 μL of the test compounds (0.005 nM to 100 nM, 10 concentrations in total) and 100 μL of buffer were added to a 96-well assay plate. 1 μL of cell membrane and 300 μL of buffer were added to each well, and the plate was shaken at 600 rpm for 5 min. A mixed solution of 100 μL of buffer and [^3H]-methylspiperone (the final concentration was 0.5 nM) was added to each well. The plate was shaken at 600 rpm for 5 min, and incubated at 27° C. for 30 min. The […]-96 GF/B filter plate pre-incubated with 0.5% PEI for 1 h was washed twice with the buffer (1 mL/well). The cell membrane suspension was added to the […]-96 GF/B filter plate, washed 4 times, and incubated at 55° C. for 10 min. 40 μL of ULTIMA GOLD was added to each well, and liquid scintillation counting was carried out.
(§2) The CPM (Counts per minute) values were determined by TopCount. […] The 10 concentrations of the compound were from 100 nM to 0.005 nM after 3-fold dilution of the reaction system. The percent inhibition rate and ten-point concentration data were fitted to the parametric nonlinear logistic equation by using GraphPad prism to calculate the IC50 values of the compound.

[2] = molecular target: T1, 5-HT2A receptor (Homo sapiens (Human), UniProt P28223); experiment: Radioligand-receptor binding assay, 5-HT2A receptor ([3H]-Ketanserin); conditions: [3H]-Ketanserin 2 nM, human 5-HT2A receptor membrane; read-out: 5HT-2A binding activity IC50
Method: Determination of the Binding Ability of the Compounds of the Present Invention to 5-HT2A Receptor
The objective of this test example is to determine the affinity of the compounds for 5-HT2A receptor.
Assay buffer: 50 mM Tris-HCl pH 7.4, 4 mM CaCl2); wash solution: 50 mM Tris-HCl pH 7.4, stored at 4° C.; 0.5% PEI solution: 0.5 g PEI dissolve in 100 mL ddH2O, 4° C. storage of spare.
as §1, with “plate. 1.5” for “plate. 1”, “300 L” for “300 μL”, “each well. The” for “each well, and the”, “and [^3H]-Ketanserin” for “and [^3H]-methylspiperone”, “was 2” for “was 0.5”
as §2

[3] = molecular target: T1, 5-HT2A receptor; experiment: Effect on calcium ion mobility in cells stably expressing 5-HT2A receptors (Flp-In-CHO-5HT2A, FLIPR); type: cell-based; conditions: Flp-In-CHO-5HT2A cells, 5HT as agonist
Method: To determine the inhibitory effect of the compounds on 5-HT2A receptor.
Probenecid and BSA were added fresh on the day of the experiment.
The calcium signal values were determined by FLIPR. […] The percent inhibition rate and ten-point concentration data were fitted to the parametric nonlinear logistic equation by using GraphPad prism to calculate the IC50 values of the compound.

[4] = Pharmacokinetic assay in Balb/c mice (plasma and brain tissue); type: in vivo; conditions: p.o. 5 mg/kg; for AUC(0-t) / AUC(0-inf) / Cmax / MRT / half-life: male, Balb/c, mouse, po; for AUC(0-t): read-out: Area under curve AUC0-t; for AUC(0-inf): read-out: Area under curve AUC0-∞; for Cmax: read-out: Plasma concentration Cmax; for MRT: read-out: Average residence time MRT; for half-life: read-out: Half life t1/2 (converted)
Method: III. Pharmacokinetic Assay in Balb/c Mice
Balb/c mice were used as test animals. The pharmacokinetic behavior of the compounds of Examples of the present invention was studied in mouse body (plasma and brain tissue) by orally administration at a dose of 5 mg/kg.
Male Balb/c mice (12 mice per group), purchased from Shanghai Jiesijie Laboratory Animal Co., LTD, with Certificate No.: SCXK (Shanghai) 2013-0006 N0.311620400001794. • 2.3 Formulation of the preparation: […]
The test compound was dissolved in 0.5% CMC-Na (1% Tween80) by sonication to formulate a clear solution or homogeneous suspension. • 2.4 Administration:
After an overnight fast, male Balb/c mice (12 mice per group) were administered p.o. with the test compound at a dose of 5 mg/kg and a volume of 10 mL/kg. • 2.5 Sample collection:
0.2 mL of blood was taken from the heart of the mouse before administration and at 1, 2, 4, 8 and 24 hours after administration, and the mice were sacrificed with CO2. The samples were stored in EDTA-K2 tubes, and centrifuged for 6 minutes at 4° C., 6000 rpm to separate the plasma. The plasma samples were stored at −80° C. Whole brain tissue was taken out, weighed, placed in a 2 mL centrifuge tube, and stored at −80° C. • 2.6 Sample process:
1) 160 μL of acetonitrile was added to 40 μL of the plasma sample for precipitation, and then the mixture was centrifuged at 3500×g for 5 to 20 minutes.
2) 90 μL of acetonitrile containing internal standard (100 ng/mL) was added to 30 μL of the plasma and brain homogenate sample for precipitation, and then the mixture was centrifuged at 13000 rpm for 8 minutes.
3) 70 μL of water was added to 70 μL of the treated supernatant and mixed by vortex for 10 minutes. 20 μL of the solution was taken to analyze the concentration of the test compound by LC/MS/MS. LC/MS/MS analytical instrument: AB Sciex API 4000 Qtrap. • 2.7 Liquid chromatography analysis: • Liquid chromatography condition: Shimadzu LC-20AD pump • Chromatographic column: Agilent ZORBAX XDB-C18 (50×2.1 mm, 3.5 μm); Mobile phase: Eluent A was 0.1% formic acid in water, and Eluent B was acetonitrile • Flow rate: 0.4 mL/min • Elution time: 0-4.0 minutes the eluent is as follows:
The main parameters of pharmacokinetics were calculated by WinNonlin 6.1.

[5] = molecular target: D3 receptor (Homo sapiens (Human), UniProt P35462); experiment: Effect on cAMP content in cells stably expressing D3 receptors (CHO-D3); type: cell-based; conditions: forskolin stimulated, activation
Method: To determine the activation effect of the compounds on D3 receptor.
3. The experimental buffer (1*HBSS, 0.1% BSA, 20 mM HEPES and 500 μM IBMX) was prepared. The compound was diluted with the buffer. 2.5 μL of the compound solution was added to each well, and the plate was incubated at 37° C. for 10 minutes. The forskolin was diluted to 8 μM (8*) with the experimental buffer. […] The reaction plate was centrifuged at 200 g for 30 s at room temperature, and left to stand at 25° C. for 1 h. Data was collected using Envision.

T1 sequence (P28223 whole entry): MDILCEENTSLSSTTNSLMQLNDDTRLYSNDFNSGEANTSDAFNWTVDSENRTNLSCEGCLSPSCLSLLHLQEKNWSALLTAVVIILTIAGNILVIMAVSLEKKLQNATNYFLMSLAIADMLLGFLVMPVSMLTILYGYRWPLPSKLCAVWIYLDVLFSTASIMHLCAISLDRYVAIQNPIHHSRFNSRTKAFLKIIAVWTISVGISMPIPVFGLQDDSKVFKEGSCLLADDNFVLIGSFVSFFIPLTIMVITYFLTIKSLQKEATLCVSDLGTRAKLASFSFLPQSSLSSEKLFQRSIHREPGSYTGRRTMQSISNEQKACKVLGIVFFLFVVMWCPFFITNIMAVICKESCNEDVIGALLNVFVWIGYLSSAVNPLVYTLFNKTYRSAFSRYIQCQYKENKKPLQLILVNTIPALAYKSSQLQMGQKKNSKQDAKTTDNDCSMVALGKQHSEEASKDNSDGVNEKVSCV
Human Dopamine D3 Receptor, sequence (P35462 whole entry): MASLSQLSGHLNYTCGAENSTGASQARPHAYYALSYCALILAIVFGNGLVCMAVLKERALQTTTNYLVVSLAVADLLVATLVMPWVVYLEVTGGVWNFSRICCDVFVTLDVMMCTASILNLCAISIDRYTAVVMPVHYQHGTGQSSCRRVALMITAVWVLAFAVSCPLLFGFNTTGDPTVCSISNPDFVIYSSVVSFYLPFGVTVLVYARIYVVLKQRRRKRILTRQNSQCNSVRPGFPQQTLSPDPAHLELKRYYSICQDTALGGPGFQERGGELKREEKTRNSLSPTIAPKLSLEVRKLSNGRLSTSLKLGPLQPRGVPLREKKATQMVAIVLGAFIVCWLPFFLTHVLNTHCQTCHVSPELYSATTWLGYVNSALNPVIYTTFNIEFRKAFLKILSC
D3 receptor, sequence (P35462 whole entry): as above

IC50 [1] | IC50 [2] | IC50 [3] | Peak time tmax ([4]; Brain) | Peak time tmax ([4]; Plasma) | AUC(0-t) ([4]; Brain) | AUC(0-inf) ([4]; Brain) | Cmax ([4]; Brain) | AUC(0-t) ([4]; Plasma) | AUC(0-inf) ([4]; Plasma) | MRT ([4]; Plasma) | half-life ([4]; Plasma) | Cmax ([4]; Plasma) | EC50 [5] | SMILES
0.83 nM | 0.43 nM | 3.16 nM | 1 h | 6 h | 4.59 µg·h/mL | 4.96 µg·h/mL | 0.328 µg/mL | 3.07 µg·h/mL | 3.39 µg·h/mL | 9.21 h | 7.3 h | 0.192 µg/mL |  | O=C(N[C@H]1CC[C@](F)(CCN2CCN(c3cccc4sccc34)CC2)CC1)c1ccco1 [Example 40, N-(Cis-4-(2-(4-(benzo[b]thiophen-4-yl)piperazin-1-yl)ethyl)-4-fluorocyclohexyl)furan-2-carboxamide]
0.43 nM | 0.37 nM |  | 1 h | 1 h | 14.1 µg·h/mL | 16.5 µg·h/mL | 1.39 µg/mL | 4.14 µg·h/mL | 4.86 µg·h/mL | 11.8 h | 8.9 h | 0.403 µg/mL | 0.1 nM | O=C(N[C@H]1CC[C@H](CCN2CCN(c3cccc4sccc34)CC2)CC1)c1ncco1 [Example 43, N-(Trans-4-(2-(4-(benzo[b]thiophen-4-yl)piperazin-1-yl)ethyl)cyclohexyl)oxazole-2-carboxamide]
